GI50 and TGI data for seven molecules are collected here from PubChem BioAssay (NCI).

Among the test systems are HL-60(TB) leukemia; MCF7 breast; OVCAR-5 ovarian; OVCAR-8 ovarian; RXF 393 renal; SF-268 CNS; SK-MEL-5 melanoma; SK-OV-3 ovarian; U251 CNS; UACC-62 melanoma.
What all share (assay): NCI tumour cell line growth inhibition, 48 h

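All cell lines were grown in 96-well plates and treated with compound for 48 hours. The concentration for 50% growth inhibition is given as GI50. Definition used: TGI = concentration required for complete inhibition of growth.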 Bounds are passed on as bounds.

`COc1ccc(Nc2ccnc(NCCCNc3ccnc4cc(Cl)ccc34)n2)cc1`: the GI50 in the test on HL-60(TB) leukemia is 1.59 µM; in the test on MCF7 breast it was 0.599 µM; in the test on OVCAR-5 ovarian, 1.16 µM; in the test on OVCAR-8 ovarian, 1.5 µM; with RXF 393 renal it was 0.897 µM; in the test with SF-268 CNS, 1.52 µM. Further, the GI50 in the test on SK-MEL-5 melanoma was 0.387 µM; with SK-OV-3 ovarian, 1.68 µM; in the test on U251 CNS, 0.59 µM; with UACC-62 melanoma, 1.4 µM. In addition, the TGI in the test with HL-60(TB) leukemia amounted to 4.1 µM; in the test with MCF7 breast, 2.42 µM; with OVCAR-5 ovarian, 3.73 µM; in the test on OVCAR-8 ovarian, 5.16 µM; in the test with RXF 393 renal, 2.3 µM; with SF-268 CNS it was 3.77 µM. Besides, the TGI in the test with SK-MEL-5 melanoma worked out at 1.46 µM; in the test on SK-OV-3 ovarian it was 3.18 µM; in the test with U251 CNS, 1.89 µM; in the test with UACC-62 melanoma, 2.96 µM.

`C=C[C@]1(C)C=C2C(=O)[C@@]3(O)OC(=O)[C@@]4(CCCC(C)(C)[C@H]34)[C@@]2(O)CC1`: the GI50 in the test on HL-60(TB) leukemia is 1.22 µM; in the test with MCF7 breast, 1.42 µM; with OVCAR-5 ovarian, 1.97 µM; in the test with OVCAR-8 ovarian, 1.69 µM; with RXF 393 renal it was 0.608 µM; with SF-268 CNS, 1.89 µM. For the same molecule, the GI50 with SK-MEL-5 melanoma is 1.58 µM; with SK-OV-3 ovarian, 4.65 µM; in the test on U251 CNS, 2.21 µM; in the test on UACC-62 melanoma, 1.37 µM. The TGI in the test on HL-60(TB) leukemia was found to be 4.43 µM; with MCF7 breast, 6.96 µM; with OVCAR-5 ovarian it was 3.85 µM; with OVCAR-8 ovarian, 5.63 µM; in the test with RXF 393 renal, 1.91 µM; in the test on SF-268 CNS, 4.69 µM. Also, the TGI stood at 2.97 µM in the test on SK-MEL-5 melanoma, 17 µM in the test on SK-OV-3 ovarian, 5.68 µM with U251 CNS and 2.92 µM with UACC-62 melanoma.

`COc1cc(C(=O)n2nc(N3CCN(C)CC3)c3cc(N)ccc32)cc(OC)c1OC`: the GI50 in the test with HL-60(TB) leukemia was 2.16 µM; in the test on MCF7 breast, 3.02 µM; in the test on OVCAR-5 ovarian it was 8.18 µM; in the test with OVCAR-8 ovarian, 4.77 µM; in the test with RXF 393 renal, 3.04 µM; in the test with SF-268 CNS, 4.19 µM. The GI50 in the test on SK-MEL-5 melanoma was 3.03 µM; in the test with SK-OV-3 ovarian, 4.26 µM; in the test on U251 CNS, 3.65 µM; in the test with UACC-62 melanoma, 2.78 µM. The TGI in the test with HL-60(TB) leukemia is 5.14 µM; with MCF7 breast it was over 100 µM; in the test with OVCAR-5 ovarian, over 100 µM; with OVCAR-8 ovarian it was over 100 µM; in the test on RXF 393 renal, over 100 µM; in the test on SF-268 CNS, 88.9 µM. In addition, the TGI with SK-MEL-5 melanoma came to 9.06 µM; in the test on SK-OV-3 ovarian, 93.2 µM; with U251 CNS, 25.8 µM; in the test on UACC-62 melanoma, 17.7 µM.

For the molecule `CC1(C)C2CCC13C(=O)C1OC3(C2)C2C(=O)c3c(O)ccc(O)c3C(=O)C12` (centres undefined), the GI50 is 10.6 µM in the test on HL-60(TB) leukemia; 35 µM in the test on MCF7 breast; 38.3 µM in the test on OVCAR-5 ovarian; 47.2 µM in the test with OVCAR-8 ovarian; 31.1 µM with RXF 393 renal; over 47.1 µM in the test on SF-268 CNS. Besides, the GI50 was 13.4 µM in the test with SK-MEL-5 melanoma, 42.2 µM with SK-OV-3 ovarian, 44.4 µM in the test on U251 CNS and 97.1 µM with UACC-62 melanoma. The TGI in the test with HL-60(TB) leukemia was over 50.2 µM; in the test with MCF7 breast, over 100 µM; in the test on OVCAR-5 ovarian, over 100 µM; with OVCAR-8 ovarian it was over 93.9 µM; with RXF 393 renal it was over 56.9 µM; in the test on SF-268 CNS, over 100 µM. The TGI is 41.5 µM with SK-MEL-5 melanoma, over 100 µM in the test on SK-OV-3 ovarian, 96.9 µM in the test on U251 CNS and over 100 µM in the test with UACC-62 melanoma.

Turning to `[N-]=[N+]=CC(=O)OCC(N)C(=O)O` (centres undefined), the GI50 was 0.918 µM in the test with HL-60(TB) leukemia; 0.456 µM with MCF7 breast; 0.971 µM in the test on OVCAR-5 ovarian; 0.923 µM with OVCAR-8 ovarian; 4.46 µM in the test on RXF 393 renal; 1.89 µM in the test on SF-268 CNS. For the same molecule, the GI50 in the test with SK-MEL-5 melanoma was 0.563 µM; in the test on SK-OV-3 ovarian it was 0.808 µM; in the test with U251 CNS it was 0.778 µM; in the test on UACC-62 melanoma it was 2.06 µM. Moreover, the TGI in the test on HL-60(TB) leukemia, with MCF7 breast, in the test with OVCAR-5 ovarian, in the test on OVCAR-8 ovarian, with RXF 393 renal and in the test on SF-268 CNS was over 100 µM in each case. For the same molecule, the TGI was 14.5 µM in the test on SK-MEL-5 melanoma, over 100 µM in the test with SK-OV-3 ovarian, over 100 µM with U251 CNS and over 100 µM in the test with UACC-62 melanoma.

For the molecule `CCNc1nc(N2CC(=O)Nc3cc(OC)ccc32)c2ccccc2n1`, the GI50 in the test on HL-60(TB) leukemia was 0.000235 µM; with MCF7 breast, 0.000369 µM; in the test with OVCAR-5 ovarian it was 0.0107 µM; in the test on OVCAR-8 ovarian, 0.000945 µM; in the test with RXF 393 renal it was 0.001 µM; in the test on SF-268 CNS it was 0.00139 µM. Besides, the GI50 with SK-MEL-5 melanoma was 0.000456 µM; in the test on SK-OV-3 ovarian, 0.000483 µM; with U251 CNS, 0.000437 µM; in the test with UACC-62 melanoma, 0.00054 µM. The TGI in the test on HL-60(TB) leukemia is 0.000581 µM; in the test with MCF7 breast, over 100 µM; in the test on OVCAR-5 ovarian, over 100 µM; with OVCAR-8 ovarian, over 100 µM; with SF-268 CNS, over 100 µM; in the test on SK-MEL-5 melanoma, 0.00337 µM. Besides, the TGI with SK-OV-3 ovarian was 0.0134 µM; in the test with U251 CNS, over 100 µM; with UACC-62 melanoma, over 100 µM.

As for `Cc1ccc(S(=O)(=O)n2cc(C(=O)C(=O)Nc3ccncc3)c3ccccc32)cc1`, the GI50 in the test with HL-60(TB) leukemia is 0.635 µM; in the test on MCF7 breast, 0.373 µM; in the test on OVCAR-5 ovarian, 8.19 µM; in the test with OVCAR-8 ovarian, 3.1 µM; in the test with RXF 393 renal, 2.7 µM; with SF-268 CNS, 2 µM. Also, the GI50 was 0.785 µM with SK-MEL-5 melanoma, 19.6 µM with SK-OV-3 ovarian, 1.4 µM in the test with U251 CNS and 0.829 µM in the test with UACC-62 melanoma. The TGI in the test with HL-60(TB) leukemia was 3.66 µM; with MCF7 breast, 27.3 µM; with OVCAR-5 ovarian it was over 100 µM; in the test on OVCAR-8 ovarian, over 100 µM; in the test with RXF 393 renal, 9.29 µM; in the test with SF-268 CNS, over 100 µM. For the same molecule, the TGI in the test on SK-MEL-5 melanoma was 21.3 µM; with SK-OV-3 ovarian, 71.2 µM; in the test on U251 CNS, over 56.1 µM; in the test on UACC-62 melanoma it was over 46.7 µM.
